From ChEMBL document CHEMBL5042504 (J Med Chem, 2022) come the findings set out here.

Each structure is given as a SMILES string. The source made the active and inactive calls. The calls are words filed in the database; no cut-off is given here.

A short description of series [1]: AUC (0 to infinity) in CD-1 mouse at 20 mg/kg, po measured upto 24 hrs. The class given is ADME, organism-based. Also on record: route oral, dose 20 mg/kg, time <=24. The following applies: in vivo.
Series [2] is described as follows: Oral bioavailability in CD-1 mouse at 20 mg/kg measured upto 24 hrs. The format is ADME, organism-based. The following applies: in vivo.
Series [3] deals with T1, Protein deacetylase HDAC6 (Homo sapiens, UniProt Q9UBN7).
T1 sequence (Q9UBN7 whole entry): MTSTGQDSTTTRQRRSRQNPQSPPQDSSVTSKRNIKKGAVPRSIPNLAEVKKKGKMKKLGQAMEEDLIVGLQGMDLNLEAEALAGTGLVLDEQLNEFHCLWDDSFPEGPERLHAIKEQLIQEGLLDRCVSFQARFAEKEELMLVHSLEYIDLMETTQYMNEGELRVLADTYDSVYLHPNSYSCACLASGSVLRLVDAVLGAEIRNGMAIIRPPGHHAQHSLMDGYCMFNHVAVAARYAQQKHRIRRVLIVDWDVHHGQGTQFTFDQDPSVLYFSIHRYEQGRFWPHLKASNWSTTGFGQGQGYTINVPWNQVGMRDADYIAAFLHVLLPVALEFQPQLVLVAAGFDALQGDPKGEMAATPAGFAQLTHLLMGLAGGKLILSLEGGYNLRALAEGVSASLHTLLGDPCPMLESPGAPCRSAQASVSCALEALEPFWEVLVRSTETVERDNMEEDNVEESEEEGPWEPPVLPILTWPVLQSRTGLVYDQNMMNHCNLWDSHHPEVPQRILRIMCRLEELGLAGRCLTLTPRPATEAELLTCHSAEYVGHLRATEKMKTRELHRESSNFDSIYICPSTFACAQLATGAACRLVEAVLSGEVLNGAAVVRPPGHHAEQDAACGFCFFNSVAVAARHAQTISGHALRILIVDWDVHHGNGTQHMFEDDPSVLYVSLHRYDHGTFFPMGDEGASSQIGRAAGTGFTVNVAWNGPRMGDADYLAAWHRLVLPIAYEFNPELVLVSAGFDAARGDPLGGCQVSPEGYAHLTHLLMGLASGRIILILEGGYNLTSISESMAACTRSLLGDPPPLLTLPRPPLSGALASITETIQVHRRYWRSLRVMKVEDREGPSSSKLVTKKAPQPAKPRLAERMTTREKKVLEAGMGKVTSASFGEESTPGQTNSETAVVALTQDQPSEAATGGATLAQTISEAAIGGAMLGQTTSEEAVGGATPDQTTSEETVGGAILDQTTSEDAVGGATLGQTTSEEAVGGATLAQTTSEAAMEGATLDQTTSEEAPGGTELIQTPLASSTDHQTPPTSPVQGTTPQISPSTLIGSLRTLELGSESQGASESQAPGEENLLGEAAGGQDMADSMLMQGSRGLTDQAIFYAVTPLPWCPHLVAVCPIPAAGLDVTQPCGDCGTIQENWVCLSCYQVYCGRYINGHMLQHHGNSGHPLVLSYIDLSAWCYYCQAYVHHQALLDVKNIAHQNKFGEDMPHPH
The series is described as follows: Inhibition of human recombinant HDAC6 using Boc-Lys(acetyl)-AMC substrate incubated for 2 hrs by fluorescence based assay.

The nature of series [4]: Cmax in CD-1 mouse at 20 mg/kg, po measured upto 24 hrs. The format is ADME, organism-based. Further details: route oral, dose 20 mg/kg, time <=24. The following applies: mouse, in vivo, 24 h.
A short description of series [5]: Drug distribution in BALB/c mouse heart measured at 4 mg/kg, po or ip after 0.5 hrs after 0.5 hrs. The format is ADME, organism-based. The settings on record: in vivo.
Series [6] is described as follows: Drug distribution in BALB/c mouse lung measured at 4 mg/kg, po or ip after 2 to 8 hrs after 0.5 hrs. The settings on record: in vivo, time 2-8 hrs. The class given is ADME, organism-based.
A short description of series [7]: Drug distribution in BALB/c mouse kidney measured at 4 mg/kg, po or ip after 2 to 8 hrs after 0.5 hrs. The format is ADME, organism-based. The following applies: in vivo, time 2-8 hrs.
Series [8] is described as follows: Drug distribution in BALB/c mouse liver measured at 4 mg/kg, po or ip after 0.5 hrs after 0.5 hrs. The format is ADME, organism-based. The following applies: in vivo.
Series [9] is described as follows: Drug distribution in BALB/c mouse brain measured at 4 mg/kg, po or ip after 2 to 8 hrs after 0.5 hrs. The format is ADME, organism-based. The settings on record: in vivo, time 2-8 hrs.
A short description of series [10]: Drug distribution in BALB/c mouse spleen measured at 4 mg/kg, po or ip after 0.5 hrs. The format is ADME, organism-based. The settings on record: in vivo.
A short description of series [11]: Drug distribution in BALB/c mouse brain measured at 4 mg/kg, po or ip after 0.5 hrs after 0.5 hrs. The class given is ADME, organism-based. The settings on record: in vivo.
Series [12] can be described thus: Drug distribution in BALB/c mouse gut measured at 4 mg/kg, po or ip after 0.5 hrs after 0.5 hrs. The format is ADME, organism-based. The following applies: in vivo.
Series [13] concerns MV4-11. Nature of the series: Antitumor activity against human MV4-11 cells xenografted in BALB/c mouse assessed as tumor growth inhibition at 2 to 4 mg/kg, po administered for 24 days. The settings on record: dose 2-4 mg/kg, time 24.0 day. The class given is functional. In general terms: Xenograft models place foreign cells or tissue in a host animal.
Series [14] is described as follows: Drug distribution in BALB/c mouse heart measured at 4 mg/kg, po or ip after 2 to 8 hrs after 0.5 hrs. The class given is ADME, organism-based. The following applies: in vivo, time 2-8 hrs.
Series [15] is described as follows: Drug uptake in BALB/c mouse xenografted with human AML MV4-11 cells assessed as tumor tissue at 4 mg/kg ip measured after 0.5 to 6 hrs by LC-MS/MS. The following applies: in vivo, time 0.5-6 hrs. The format is ADME, organism-based.
Series [16] deals with MV4-11. Nature of the series: Antitumor activity against human MV4-11 cells xenografted in BALB/c mouse assessed as tumor growth inhibition at 4 mg/kg, ip administered for 24 days. The class given is functional, organism-based. The settings on record: time 24.0 day.
Series [17] in a line: Drug uptake in BALB/c mouse xenografted with human AML MV4-11 cells assessed as tumor tissue at 4mg/kg, po measured after 0.5 to 6 hrs by LC-MS/MS. The class given is ADME, organism-based. The settings on record: in vivo, time 0.5-6 hrs.
A short description of series [18]: Plasma concentration in BALB/c mouse xenografted with human AML MV4-11 cells at 4 mg/kg, po. The class given is ADME, organism-based. The settings on record: in vivo.
Series [19] is described as follows: Drug distribution in BALB/c mouse gut measured at 4 mg/kg, po or ip after 2 to 8 hrs after 0.5 hrs. The settings on record: in vivo, time 2-8 hrs. The format is ADME, organism-based.
Series [20] in a line: Drug distribution in tumor of BALB/c mouse xenografted with human MV4-11 cells assessed as measured after 2 hrs. The class given is ADME. The following applies: read-out: Ct.
The nature of series [21]: Drug distribution in tumor of BALB/c mouse xenografted with human MV4-11 cells assessed as measured after 0.5 hrs. The format is ADME. The settings on record: read-out: Ct.
Series [22] concerns MV4-11. The series is described as follows: Antitumor activity against human MV4-11 cells xenografted in BALB/c mouse assessed as tumor growth inhibition at 4 mg/kg, po administered for 24 days. The format is functional, organism-based. The following applies: time 24.0 day.
A short description of series [23]: Plasma concentration in BALB/c mouse xenografted with human AML MV4-11 cells at 4 mg/kg, ip. The format is ADME, organism-based. The settings on record: in vivo.
The nature of series [24]: Drug distribution in BALB/c mouse kidney measured at 4 mg/kg, po or ip after 0.5 hrs after 0.5 hrs. The class given is ADME, organism-based. The settings on record: in vivo.
Series [25] in a line: Drug distribution in tumor of BALB/c mouse xenografted with human MV4-11 cells assessed as measured after 8 hrs. The settings on record: read-out: Ct. The class given is ADME.
Series [26] can be described thus: Drug distribution in BALB/c mouse liver measured at 4 mg/kg, po or ip after 2 to 8 hrs after 0.5 hrs. The class given is ADME, organism-based. The settings on record: in vivo, time 2-8 hrs.
The nature of series [27]: Drug distribution in BALB/c mouse lung measured at 4 mg/kg, po or ip after 0.5 hrs after 0.5 hrs. The following applies: in vivo. The class given is ADME, organism-based.
Series [28] can be described thus: Drug distribution in BALB/c mouse spleen measured at 4 mg/kg, po or ip after 2 to 8 hrs after 0.5 hrs. The class given is ADME, organism-based. The settings on record: in vivo, time 2-8 hrs.

`CCCNNC(=O)/C=C/c1ccc(CNCCc2c(C)[nH]c3ccccc23)cc1` registered an exposure (AUC) in [1] of 265 ng·h/mL. In [2], this compound yielded an F of 19.8%. Also, the IC50 in series [3] was above 10 µM. This compound also returned a maximum concentration (Cmax) in [4] of 45.1 ng/mL.

For `Cc1[nH]c2ccccc2c1CCNCc1ccc(/C=C/C(=O)NO)cc1` [PANOBINOSTAT], the Drug uptake entry in series [5], in series [6], in [7], in series [8], in series [9] and in series [10] was “Active” each time. In addition, the Drug uptake result in [11], in series [12], in series [14], in series [15], in [17] and in series [18] was “Active” throughout. Moreover, the Drug uptake result in series [19], in series [23], in series [24], in series [26], in series [27] and in series [28] was “Active” throughout. The TGI entry in the series with MV4-11 [13] was “inactive”. Also, the result in the series on MV4-11 [16] and in the series on MV4-11 [22] was Active. In series [20], the concentration at 2 h stood at 151 ng/g. Also, the concentration at 0.5 h in series [21] came out at 82.4 ng/g. In addition, the concentration at 8 h in [25] is 108 ng/g.

A word on the AUC: it is concentration integrated over time. As a reminder, the IC50 is the concentration that inhibits the measured activity by half. Usually Cmax stands for the highest concentration seen after dosing.
